Measurements taken from PMC6791878, “Evaluation of integrin αvβ6 cystine knot PET tracers to detect cancer and idiopathic pulmonary fibrosis” (Nature Communications, 2019).
Several values for one entry are separate records, joined by “and”; a condition that tells them apart may be missing. Identical values can stand only once. Like-named read-outs stand apart in the source and are kept apart here.

What was measured:
human integrin αvβ6 [1] = target: T1, human integrin αvβ6 (Homo sapiens, UniProt P06756+P18564, DEL708-788); experiment: Equilibrium binding of yeast-displayed knottins to soluble integrin αvβ6 (two-colour flow cytometry, KD)
T1 construct: purchased R&D Systems
T1 sequence (P06756 31-992 limits assumed, stated change not applied): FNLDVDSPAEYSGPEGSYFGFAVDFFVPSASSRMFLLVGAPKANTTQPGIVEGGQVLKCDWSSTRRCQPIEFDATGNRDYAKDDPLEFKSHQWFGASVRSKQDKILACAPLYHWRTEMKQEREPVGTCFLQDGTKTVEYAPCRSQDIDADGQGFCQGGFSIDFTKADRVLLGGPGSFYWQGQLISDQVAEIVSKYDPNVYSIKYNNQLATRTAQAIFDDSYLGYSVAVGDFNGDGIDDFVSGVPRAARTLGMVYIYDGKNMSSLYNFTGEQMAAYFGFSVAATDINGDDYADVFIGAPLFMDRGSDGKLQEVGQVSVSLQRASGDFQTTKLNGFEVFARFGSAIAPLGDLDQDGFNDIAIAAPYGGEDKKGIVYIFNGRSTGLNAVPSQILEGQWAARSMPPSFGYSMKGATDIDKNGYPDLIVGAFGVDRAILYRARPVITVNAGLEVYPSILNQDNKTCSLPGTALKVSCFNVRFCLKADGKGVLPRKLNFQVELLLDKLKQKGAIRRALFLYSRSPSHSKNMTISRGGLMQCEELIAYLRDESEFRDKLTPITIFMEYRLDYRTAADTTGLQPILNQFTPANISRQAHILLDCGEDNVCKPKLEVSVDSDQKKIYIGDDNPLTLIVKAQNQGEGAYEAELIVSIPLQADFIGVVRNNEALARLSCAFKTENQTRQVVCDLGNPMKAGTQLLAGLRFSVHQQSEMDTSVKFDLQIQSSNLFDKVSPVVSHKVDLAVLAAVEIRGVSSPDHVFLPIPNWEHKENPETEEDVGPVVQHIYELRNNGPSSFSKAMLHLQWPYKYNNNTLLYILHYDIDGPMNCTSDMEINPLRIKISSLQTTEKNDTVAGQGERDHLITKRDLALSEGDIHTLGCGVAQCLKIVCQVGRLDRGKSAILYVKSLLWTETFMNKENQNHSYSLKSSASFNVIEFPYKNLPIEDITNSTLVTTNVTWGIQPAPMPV
T1 sequence (P18564 22-707 limits assumed, stated change not applied): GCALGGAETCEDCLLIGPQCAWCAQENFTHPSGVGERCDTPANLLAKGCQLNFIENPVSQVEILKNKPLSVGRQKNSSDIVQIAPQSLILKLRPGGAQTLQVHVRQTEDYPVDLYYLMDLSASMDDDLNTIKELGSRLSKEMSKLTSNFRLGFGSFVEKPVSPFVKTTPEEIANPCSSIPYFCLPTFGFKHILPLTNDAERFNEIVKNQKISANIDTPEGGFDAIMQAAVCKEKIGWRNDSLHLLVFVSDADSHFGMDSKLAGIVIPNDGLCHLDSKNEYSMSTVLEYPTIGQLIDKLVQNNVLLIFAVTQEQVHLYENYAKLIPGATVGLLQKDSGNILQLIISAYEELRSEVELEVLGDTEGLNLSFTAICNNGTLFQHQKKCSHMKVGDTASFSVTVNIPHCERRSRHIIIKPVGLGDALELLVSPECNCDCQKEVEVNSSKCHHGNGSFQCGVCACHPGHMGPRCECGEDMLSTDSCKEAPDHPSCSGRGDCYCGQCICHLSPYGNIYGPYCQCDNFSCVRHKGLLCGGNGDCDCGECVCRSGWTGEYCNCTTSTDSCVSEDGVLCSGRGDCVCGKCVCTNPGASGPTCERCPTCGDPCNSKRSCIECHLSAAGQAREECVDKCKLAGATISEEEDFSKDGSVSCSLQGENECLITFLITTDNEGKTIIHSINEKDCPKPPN

human integrin αvβ6 [2] = target: T1, human integrin αvβ6; set-up: method as in Kimura et al., Clin. Can. Res., 2012; conditions: ref Kimura et al., Clin. Can. Res., 2012; cited from earlier work
pancreatic cancer = experiment: [18F]FP-R01-MG-F2 vs [18F]FDG PET/CT in a pancreatic cancer patient (Stanford); conditions: one patient
Description: The line was flushed with at least 10 ml normal saline after injection. • Blood samples for blood time activity measurements were taken at 1, 3, 5, and 10 min after tracer administration and then at 30-minute intervals for up to 3 h after tracer injection. The counts in whole blood and plasma were measured by gamma counter (Perkin Elmer Wizard 1470). […] The scan was performed over the abdominal region to include the pancreas. Attenuation correction was employed via CT (120 kV, 10 mA). […] The scan was performed over the chest region. Attenuation correction was employed via CT (120 kV, 10 mA). • Static total-body (vertex-to-toe) PET/CT scans were acquired at 60 min and 120 min post injection. CT was performed at 120 kV; it was dose-modulated based on body habitus with current ranging from 10-105 mA for the 60-minute scan. […] EKG data was analyzed to assess changes in overall rhythm of the heart. • On the day of the study, participants were asked to void frequently to reduce radiation exposure. Urine samples were collected at prior to tracer administration (baseline), prior to the static PE scans, at the end of the study day 1, and at the follow up visits 1 day and 7 days after tracer administration.
Upon co-registration of the PET and CT images, the CT images were used to determine regions of interest for the organs or tissues reported in the manuscript. These ROIs were applied to the PET images of the brain, pituitary gland, breast, lower and upper large intestine, small intestine, stomach, pancreas, heart wall, liver, lung, muscle, red marrow, bone, skin, and thyroid gland. For high uptake organs such as the kidneys, bladder and for the whole body, threshold-based segmentation of PET images were used to determine a close-fitting ROI around the entire organ or whole body. In order to determine accuracy, these PET-derived ROIs were compared to the CT overlay for a close match.

cervical cancer = experiment: [18F]FDG PET/CT (PUMC Hospital); assay type: in vivo, human; conditions: second cervical cancer patient
Description: All patients were instructed to avoid strenuous work or exercise for at least 24 h prior to the scheduled study date. Study participants were also instructed to fast for at least 4 h before intravenous administration of the PET tracer. Patients were administered [^18F]FDG at a dosage of 5.55 MBq (0.15 mCi) per kilogram body weight. Immediately after tracer administration, patients were allowed to rest and relax in a warm, darkened room for approximately 45–60 min. Next, each patient emptied their bladder. The PET scan that followed spanned a region from the mid-thigh area to the base of the skull (six bed positions, 2 min bed^−1).

Structure (SMILES) | Kd (human integrin αvβ6 [1]) [nM] | Kd (human integrin αvβ6 [2]) [nM] | SUVmean, liver (pancreatic cancer; 1 h p.i.) | SUVmean, small intestines (pancreatic cancer; 1 h p.i.) | SUVmean, stomach (pancreatic cancer; 1 h p.i.) | SUVmean, pancreatic tumor (pancreatic cancer; ~1 h p.i.) | SUVmean, cervical tumor (cervical cancer)
CC[C@H](C)[C@@H]1NC(=O)[C@@H](NC(=O)CN)CSSC[C@@H]2NC(=O)[C@H](C)NC(=O)CNC(=O)[C@@H]3CCCN3C(=O)[C@@H]3CSSC[C@@H](C(=O)NCC(N)=O)NC(=O)[C@H](Cc4ccc(O)cc4)NC(=O)CNC(=O)[C@H](CC(N)=O)NC(=O)CNC(=O)[C@H](CCCNC(=N)N)NC(=O)[C@H](CSSC[C@H](NC(=O)[C@H](CCCNC(=N)N)NC(=O)[C@H](Cc4ccccc4)NC(=O)[C@H](CC(C)C)NC(=O)[C@H](CC(C)C)NC(=O)[C@H]([C@@H](C)O)NC(=O)CNC(=O)[C@H](CC(C)C)NC(=O)[C@H](CC(=O)O)NC(=O)[C@H]([C@@H](C)O)NC(=O)[C@H](CCCNC(=N)N)NC(=O)[C@H](CCSC)NC(=O)[C@H](CC(N)=O)NC(=O)[C@H](CC(C)C)NC1=O)C(=O)N[C@@H](CCCNC(=N)N)C(=O)N[C@@H](CCCNC(=N)N)C(=O)N[C@@H](CC(=O)O)C(=O)N[C@@H](CO)C(=O)N[C@@H](CC(=O)O)C(=O)N3)NC(=O)[C@H]([C@@H](C)CC)NC2=O [R01] | ~1 | ~3 |  |  |  |  | 
OC[C@H]1OC(O)[C@H]([18F])[C@@H](O)[C@@H]1O (stereo partly shown) [[^18F]FDG, reference compound] |  |  | 2.9 | 2.5 | 0.16 | 4.1 and ~ 4 | 4.1
